In patent US8859541B2, “6-alkynylpyridines” (Boehringer Ingelheim International GmbH, priority 2012, dated 2014):
pIC50: −log10 of the molar value.

Tests used:
XIAP BIR3 = biological target: T1, XIAP BIR3 (Homo sapiens, UniProt P98170); assay: XIAP BIR3 binding assay (DELFIA), displacement of SMAC peptide; conditions: GST-fusion BIR3 domain (aa 241 to 356) 10 nM, SMAC peptide 10 nM; activity of the (S)-isomers
T1 construct: covering amino acids 241 to 356; XIAP BIR3; made in house; host or cells: E. coli
T1 sequence (P98170 241-356): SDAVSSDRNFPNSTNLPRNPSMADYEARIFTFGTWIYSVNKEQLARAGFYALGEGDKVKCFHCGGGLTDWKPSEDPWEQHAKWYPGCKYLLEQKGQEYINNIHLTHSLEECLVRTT
Outline: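 Each BIR3 domain (10 nM) incubated with biotinylated N-terminal SMAC peptide (10 nM) and compound for 1 h at room temp in Tris/NaCl buffer with BSA, DTT and Triton X-100. Captured on streptavidin plates; bound BIR3 detected by Eu-labelled anti-GST time-resolved fluorescence, giving IC50 values.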

cIAP1 BIR3 = biological target: T2, cIAP1 BIR3 (Homo sapiens, UniProt Q13490); assay: cIAP1 BIR3 binding assay (DELFIA), displacement of SMAC peptide; conditions: GST-fusion BIR3 domain (aa 256 to 363) 10 nM, SMAC peptide 10 nM; activity of the (S)-isomers
T2 construct: covering amino acids 256 to 363; cIAP1 BIR3; made in house; host or cells: E. coli
T2 sequence (Q13490 256-363): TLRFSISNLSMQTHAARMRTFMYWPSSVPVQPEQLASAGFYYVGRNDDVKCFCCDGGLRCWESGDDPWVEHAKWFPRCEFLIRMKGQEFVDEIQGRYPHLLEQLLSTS
Procedure: Biological Methods XIAP BIR3 and cIAP1 BIR3 Binding Assays (DELFIA)
Peptide […]-Lys(Biotin), representing the N-terminus of mature human SMAC (SMAC peptide), was used as interaction partner in the protein-peptide interaction assay.
BIR3 domains (10 nM) were incubated with SMAC peptide (10 nM) in Assay Buffer (50 mM Tris, 120 mM NaCl, 0.1% BSA, 1 mM DTT, 0.05% TritonX100) for one hour at room temperature in the presence of inhibitiory compounds. The assay mixture was transferred to a strepatvidin coated plate and incubated for one hour at room temperature to allow binding of the biotinylated peptide and associated BIR3 domains to the plate. After several washing steps Eu labeled anti-GST antibody (e.g. Perkin Elmer DELFIA Eu-N1-antiGST AD0250) was added to detect BIR3 domain-SMAC peptide interactions according to Perkin Elmer's instructions. […] Time resolved Europium fluoresecence was measured in a Wallac Victor using Standard assay settings.
DELFIA assay results were plotted against compound concentrations and Software GraphPad Prizm was used to calculate half maximal inhibitory concentrations (IC50 values).

SMILES	pIC50 (XIAP BIR3)	pIC50 (cIAP1 BIR3)
CNC(C)C(=O)Nc1ccc(-c2cncc(C(=O)OC)c2)c(C#Cc2cccc(C)c2)n1 (centres unmarked) [Example 13, methyl 5-[6-[[2-(methyl-amino)propanoyl]amino]-2-[2-(3-methylphenyl)ethynyl]-pyridin-3-yl]pyridine-3-carboxylate]	7.02	7.92
CNC(C)C(=O)Nc1ccc(-c2c(C)nc3ccccn23)c(C#Cc2ccc3c(ccc(=O)n3C)c2)n1 (centres unmarked) [Example 26, 2-(methylamino)-N-[5-(2-methylimidazo[1,2-a]pyridin-3-yl)-6-[2-(1-methyl-2-oxoquinolin-6-yl)ethynyl]pyridin-2-yl]propanamide]	6.24	9.00
CNC(C)C(=O)Nc1ccc(-c2c(C)nc3ccccn23)c(C#Cc2ccc3ncccc3c2)n1 (centres unmarked) [Example 28, 2-(methylamino)-N-[5-(2-methylimidazo[1,2-a]pyridin-3-yl)-6-(2-quinolin-6-ylethynyl)-pyridin-2-yl]propanamide]	6.70	9.00
CNC(C)C(=O)Nc1ccc(-c2c(C)nc3ccccn23)c(C#Cc2ccc3cnccc3c2)n1 (centres unmarked) [Example 29, N-[6-(2-isoquinolin-6-yl-ethynyl)-5-(2-methyl-imidazo[1,2-a]pyridin-3-yl)-pyridin-2-yl]-2-(methylamino)-propanamide]	6.84	9.00
CNC(C)C(=O)Nc1ccc(-c2c(C)nc3ccccn23)c(C#Cc2ccc3nc(C)ccc3c2)n1 (centres unmarked) [Example 30, 2-(methylamino)-N-[5-(2-methylimidazo[1,2-a]pyridin-3-yl)-6-[2-(2-methylquinolin-6-yl)ethynyl]pyridin-2-yl]propan-amide]	6.38	9.00
CNC(C)C(=O)Nc1ccc(-c2c(C)nc3ccccn23)c(C#Cc2ccc3c(c2)CN(C)C3=O)n1 (centres unmarked) [Example 31, 2-(methylamino)-N-[5-(2-methylimidazo[1,2-a]pyridin-3-yl)-6-[2-(2-methyl-1-oxo-3H-isoindol-5-yl)ethynyl]pyridin-2-yl]propanamide]	6.64	9.00
CNC(C)C(=O)Nc1ccc(-c2c(C)nc3ccccn23)c(C#Cc2ccc3c(c2)OCC(=O)N3C)n1 (centres unmarked) [Example 33, 2-(methylamino)-N-[5-(2-methylimidazo[1,2-a]pyridin-3-yl)-6-[2-(4-methyl-3-oxo-1,4-benzoxazin-7-yl)ethynyl]-pyridin-2-yl]propanamide]	6.56	9.00
CNC(C)C(=O)Nc1ccc(-c2c(C)nc3ccccn23)c(C#Cc2ccc(-c3ccon3)cc2)n1 (centres unmarked) [Example 34, 2-(methylamino)-N-[5-(2-methylimidazo[1,2-a]pyridin-3-yl)-6-[2-[4-(1,2-oxazol-3-yl)-phenyl]ethynyl]pyridin-2-yl]-propanamide]	6.55	9.00
CNC(C)C(=O)Nc1ccc(-c2c(C)nc(N3CCOCC3)nc2C)c(C#Cc2ccc3c(ccc(=O)n3C)c2)n1 (centres unmarked) [Example 35, N-[5-(4,6-dimethyl-2-morpholin-4-ylpyrimidin-5-yl)-6-[2-(1-methyl-2-oxoquinolin-6-yl)ethynyl]pyridin-2-yl]-2-(methylamino)propanamide]	5.83	9.00
CNC(C)C(=O)Nc1ccc(-c2c(C)nc3ccccn23)c(C#Cc2ccc(-c3cccnc3)cc2)n1 (centres unmarked) [Example 36, 2-(methylamino)-N-[5-(2-methylimidazo[1,2-a]pyridin-3-yl)-6-[2-(4-pyridin-3-ylphenyl)-ethynyl]pyridin-2-yl]propan-amide]	6.95	9.00
CNC(C)C(=O)Nc1ccc(-c2c(C)nc3ccccn23)c(C#Cc2ccc(-n3cncn3)cc2)n1 (centres unmarked) [Example 37, 2-(methylamino)-N-[5-(2-methylimidazo[1,2-a]pyridin-3-yl)-6-[2-[4-(1,2,4-triazol-1-yl)-phenyl]ethynyl]pyridin-2-yl]-propanamide]	6.78	9.00
CNC(C)C(=O)Nc1ccc(-c2c(-c3ccncc3)nc3cc(C)ccn23)c(C#Cc2ccc(Cl)c(Cl)c2)n1 (centres unmarked) [Example 39, N-[6-[2-(3,4-dichlorophenyl)-ethynyl)-5-(7-methyl-2-pyridin-4-ylimidazo[1,2-a]pyridin-3-yl)-pyridin-2-yl]-2-(methylamino)-propanamide]	7.06	9.00
CNC(C)C(=O)Nc1ccc(-c2c(C)nc3ccccn23)c(C#Cc2ccc(C#N)c(Cl)c2)n1 (centres unmarked) [Example 41, N-[6-[2-(3-chloro-4-cyanophenyl)ethynyl]-5-(2-methylimidazo[1,2-a]pyridin-3-yl)pyridin-2-yl]-2-(methyl-amino)propanamide]	6.91	9.00
CNC(C)C(=O)Nc1ccc(-c2c(C)nc3ccccn23)c(C#Cc2ccc3ncsc3c2)n1 (centres unmarked) [Example 42, N-[6-[2-(1,3-benzothiazol-6-yl)-ethynyl]-5-(2-methyl-imidazo[1,2-a]pyridin-3-yl)-pyridin-2-yl]-2-(methylamino)-propanamide]	7.03	9.00
CNC(C)C(=O)Nc1ccc(-c2c(C)nc3ccccn23)c(C#Cc2ccc(-c3cnco3)cc2)n1 (centres unmarked) [Example 44, 2-(methylamino)-N-[5-(2-methylimidazo[1,2-a]pyridin-3-yl)-6-[2-[4-(1,3-oxazol-5-yl)-phenyl]ethynyl]pyridin-2-yl]-propanamide]	6.87	9.00
CNC(C)C(=O)Nc1ccc(-c2c(C)ncnc2C)c(C#Cc2ccc3cnccc3c2)n1 (centres unmarked) [Example 45, N-[5-(4,6-dimethylpyrimidin-5-yl)-6-(2-isoquinolin-6-yl-ethynyl)pyridin-2-yl]-2-(methyl-amino)propanamide]	6.37	8.70
CNC(C)C(=O)Nc1ccc(-c2c(C)nc3cc(Cl)ccn23)c(C#Cc2ccc3ncccc3c2)n1 (centres unmarked) [Example 46, N-[5-(7-chloro-2-methyl-imidazo[1,2-a]pyridin-3-yl)-6-(2-quinolin-6-ylethynyl)pyridin-2-yl]-2-(methylamino)propan-amide]	6.84	9.00
CNC(C)C(=O)Nc1ccc(-c2c(C)nc3cc(F)ccn23)c(C#Cc2ccc3ncccc3c2)n1 (centres unmarked) [Example 47, N-[5-(7-fluoro-2-methyl-imidazo[1,2-a]pyridin-3-yl)-6-(2-quinolin-6-ylethynyl)pyridin-2-yl]-2-(methylamino)propan-amide]	6.74	9.00
CNC(C)C(=O)Nc1ccc(-c2c(C)nc3ccccn23)c(C#Cc2ccc3nccn3c2)n1 (centres unmarked) [Example 48, N-[6-(2-imidazo[1,2-a]pyridin-6-ylethynyl)-5-(2-methyl-imidazo[1,2-a]pyridin-3-yl)-pyridin-2-yl]-2-(methylamino)-propanamide]	6.67	9.00
CC(N)C(=O)Nc1cccc(C#Cc2cncs2)n1 (centres unmarked) [Example 239, 2-amino-N-[6-[2-(1,3-thiazol-5-yl)ethynyl]pyridin-2-yl]propanamide]	5.34	
CC(N)C(=O)Nc1cccc(C#Cc2ccco2)n1 (centres unmarked) [Example 241, 2-amino-N-[6-[2-(furan-2-yl)ethynyl]pyridin-2-yl]propanamide]	5.49	
CC(N)C(=O)Nc1cccc(C#Cc2ccc3ccccc3c2)n1 (centres unmarked) [Example 242, 2-amino-N-[6-(2-naphthalen-2-ylethynyl)pyridin-2-yl]propanamide]	5.37	
CNC(C)C(=O)Nc1ccc(N(C)S(=O)(=O)c2ccccc2)c(C#Cc2ccccc2)n1 (centres unmarked) [Example 243, N-[5-[benzenesulfonyl(methyl)amino]-6-(2-phenylethynyl)pyridin-2-yl]-2-(methylamino)propanamide]	6.80	
CNC(C)C(=O)Nc1ccc(N(C)C(=O)C2CCOCC2)c(C#Cc2ccccc2)n1 (centres unmarked) [Example 244, N-methyl-N-[6-[2-(methylamino)propanoylamino]-2-(2-phenylethynyl)pyridin-3-yl]oxane-4-carboxamide]	5.83	
CNC(C)C(=O)Nc1ccc(NC(=O)C2CCCC2)c(C#Cc2ccccc2)n1 (centres unmarked) [Example 245, N-[6-[[2-(methylamino)-propanoyl]amino]-2-(2-phenylethynyl)pyridin-3-yl]-cyclopentanecarboxamide]	5.89	
CNC(C)C(=O)Nc1ccc(NC(=O)C2CCOCC2)c(C#Cc2ccccc2)n1 (centres unmarked) [Example 246, N-[6-[[2-(methylamino)-propanoyl]amino]-2-(2-phenylethynyl)pyridin-3-yl]-oxane-4-carboxamide]	5.82	
CNC(C)C(=O)Nc1ccc(N(C)C(=O)c2ccccc2)c(C#Cc2ccccc2)n1 (centres unmarked) [Example 247, N-methyl-N-[6-[[2-(methyl-amino)propanoyl]amino]-2-(2-phenylethynyl)pyridin-3-yl]-benzamide]	6.13	
CNC(C)C(=O)Nc1ccc(N(C)C(=O)C2CCCC2)c(C#Cc2ccccc2)n1 (centres unmarked) [Example 248, N-methyl-N-[6-[[2-(methyl-amino)propanoyl]amino]-2-(2-phenylethynyl)pyridin-3-yl]-cyclopentanecarboxamide]	6.10	
